{"source": "patent US20150252013A1", "about": "“TREATMENT OF MULTIPLE SCLEROSIS AND PSORIASIS USING PRODRUGS OF METHYL HYDROGEN FUMARATE” (XenoPort, Inc., priority 2012, published 2015)", "key": {"rat stomach": {"test_system": "rat stomach", "assay": "Gastrointestinal irritation evaluation in rats (Annamalai-Ma gastrointestinal irritation rat model)", "format": "in vivo", "conditions": "average stomach score (0-5 scale, Table 1) from at least 5 rats; oral, once per day for 4 consecutive days", "description": "In order to assess gastrointestinal irritation using this model, rats are treated orally with either vehicle or the MHF prodrug to be tested (n=10 per group) at 180 mg-equivalents MHF/kg of animal body weight, dosed once per day for 4 days, followed by necropsy and gastrointestinal evaluation at 24 hrs after the final dose. Evans Blue dye is injected IV (tail vein) to visually emphasize any lesions in the gastrointestinal tissue.\nRats were dosed once per day for 4 consecutive days with 180 mg-equivalents MHF/kg body weight per day of a number of MHF prodrugs. The animals were fasted overnight prior to necropsy. On Day 5, to help visualize lesions, 1 mL of 1% Evan's blue in saline was injected into the tail vein 30 minutes prior to euthanasia. All animals were euthanized by inhalation of carbon dioxide. A partial necropsy, limited to the abdominal cavities, was performed. The stomach and small intestine were removed. Residual material was washed away, using an irrigation syringe filled with saline. The stomach was cut along the larger curvature and washed gently with normal saline, and was examined for any lesions. The stomachs were scored in accordance with the scoring system outlined in Table 1. The stomach scores from at least 5 rats were used to calculate an average gastrointestinal irritation score, which scores are reported in Table 2."}, "C57BL/6 mice": {"test_system": "C57BL/6 mice", "assay": "MOG35-55 mouse EAE model of multiple sclerosis", "format": "in vivo", "conditions": "oral 90 mg-eq MHF/kg twice daily, Days 3 to 29", "description": "(§1) C57BL/6 mice (6 females) were injected subcutaneously with MOG35-55 peptide in CFA with Mycobacterium tuberculosis. Pertussis toxin ([…]) was injected IV on Day 0 and Day 2 post-immunization. Animals received oral XP23829 or DMF (90 mg-eq MHF/kg twice daily) or vehicle on Days 3 to 29. Daily EAE clinical disease scores (5 point scale) were recorded. End of study MHF blood levels were determined by LC/MS/MS."}, "Balb/c mice": {"test_system": "Balb/c mice", "assay": "Imiquimod (IMQ) mouse model of psoriasis", "format": "in vivo", "conditions": "Day -5 to Day 5", "from_the_text": "Balb/c mice (10 males/group) received daily topical IMQ (5% cream) on shaved back and right ear for 5 days. […] Erythema score was the primary outcome measure."}, "CD rats [1]": {"test_system": "CD rats", "conditions": "rat, in vivo, 300 mg/kg/day", "quoted_text": "(§3) (N,N-diethylcarbamoyl)methyl methyl (2E)but-2-ene-1,4-dioate was administered to CD rats (10/sex/dose) at 0 (vehicle), 150, 250, or 500 mg/kg/day and monkeys (3/sex/group) at 0 (vehicle), 25, 75, or 200 mg/kg/day for 4 weeks in GLP toxicity studies. In parallel studies, DMF was administered at doses intended to deliver similar MHF exposures: in rats (10/sex/dose) at 90, 150, and 300 mg/kg/day and monkeys (3/sex/group) at 0 (vehicle), 40, 90, or 250 mg/kg/day for 4 weeks. Gastrointestinal toxicity was assessed by gross necropsy and histopathology."}, "monkeys": {"test_system": "monkeys", "assay": "4-week GLP toxicity study in monkeys, gastrointestinal toxicity by gross necropsy and histopathology", "quoted_text": "as §3"}, "[2]": {"test_system": "GST activity in the forestomach tissue of rats", "assay": "Glutathione S transferase (GST) activity of the cytosolic extracts of rat forestomach after oral dosing", "format": "in vivo", "conditions": "rat forestomach cytosol; oral gavage 180 mg-equivalents of MMF/kg once per day for 14 days; relative to DMF", "description": "wherein SARprodrug is the ratio of (i) the GST activity in the forestomach tissue of rats treated with the MMF prodrug (GSTAprodrug) to (ii) the GST activity in the forestomach tissue of rats treated with a non-irritating control solution comprised of 0.5 wt % methylcellulose and 0.1 wt % Tween 80 in 10 mM sodium acetate buffer, pH 4.5 (GSTAcontrol); and SARDMF is the ratio of (i) the GST activity in the forestomach tissue of rats treated with DMF (GSTADMF) to (ii) the GST activity in the forestomach tissue of rats treated with a non-irritating control solution comprised of 0.5 wt % methylcellulose and 0.1 wt % Tween 80 in 10 mM sodium acetate buffer, pH 4.5 (GSTAcontrol). The SARprodrug is proportional to the amount of GST isozymes induced by the MMF prodrug treatment while the SARDMF is proportional to the amount of GST isozymes induced by DMF prodrug treatment. A detailed description of how to determine the GSTArel is provided in Example 1 herein. […]\nTotal cytosolic GST activity is determined by measuring the conjugation of 1-chloro-2,4-dinitrobenzene (CDNB) with reduced glutathione. […] The formation of the conjugate is monitored spectrophotometrically by measuring the rate of increase in absorbance at 340 nm over a period of 3 minutes. The rate of increase is measured in μmole/min production of GST-CDNB and is directly proportional to the GST activity in the sample. […]"}, "[3]": {"assay": "MHF and intact prodrug blood levels in the mouse efficacy studies (LC/MS/MS)", "format": "in vivo", "conditions": "oral dosing", "description": "as §1"}, "[4]": {"assay": "Toxicokinetics at steady state in rats", "format": "in vivo, rat", "description": "(§2) Gastrointestinal toxicity was assessed by gross necropsy and histopathology. Toxicokinetics were assessed at steady state in parallel cohorts."}, "[5]": {"assay": "Toxicokinetics at steady state in monkeys", "format": "in vivo, monkey", "description": "as §2"}, "CD rats [6]": {"test_system": "CD rats", "assay": "4-week GLP toxicity study in rats, gastrointestinal toxicity by gross necropsy and histopathology", "conditions": "500 mg/kg/day for 4 weeks", "quoted_text": "as §3"}}, "note": "Structures can show the parent of a compound that is named as a salt. Where two headings read alike, the source gives them in different places.", "data": [{"smiles": "COC(=O)/C=C/C(=O)OCCCCCN1CCOCC1", "note": "[Methyl 5-morpholin-4-ylpentyl (2E)but-2-ene-1,4-dioate]", "values": [{"measurement": "GI Irritation Score (180 mg-eq of MHF/kg)", "setting": "rat stomach", "result": 0.0}]}, {"smiles": "COC(=O)/C=C/C(=O)OCCCCCCN1CCOCC1", "note": "[Methyl 6-morpholin-4-ylhexyl (2E)but-2-ene-1,4-dioate]", "values": [{"measurement": "GI Irritation Score (180 mg-eq of MHF/kg)", "setting": "rat stomach", "result": 0.0}]}, {"smiles": "COC(=O)/C=C/C(=O)OC", "note": "[Dimethyl Fumarate]", "values": [{"measurement": "GI Irritation Score (180 mg-eq of MHF/kg)", "setting": "rat stomach", "result": 4.6}, {"measurement": "reduction in EAE clinical score (Day 29 and overall AUC) compared to vehicle", "setting": "C57BL/6 mice", "result": "not statistically significant"}, {"measurement": "effect versus control in IMQ model (erythema score primary outcome)", "setting": "Balb/c mice; oral 45 or 90 mg-eq MMF/kg twice daily (either dose)", "result": "not significant"}, {"measurement": "glandular stomach findings", "setting": "CD rats [1]", "result": "ulceration, necrosis and loss of mucosa of glandular stomach"}, {"measurement": "gastric mucosal hyperplasia (histopathology) compared to (N,N-diethylcarbamoyl)methyl methyl (2E)but-2-ene-1,4-dioate", "setting": "monkeys; monkeys, 4 weeks", "result": "greater gastric mucosal hyperplasia"}, {"measurement": "gastrointestinal irritation after 4 weeks of dosing", "setting": "monkeys; monkeys, 40, 90 or 250 mg/kg/day", "result": "dose dependent gastrointestinal irritation"}, {"measurement": "mortality", "setting": "monkeys; monkeys, high dose, 4 weeks", "result": "One high dose DMF monkey died from gastric ulceration"}]}, {"smiles": "CCN(C(=O)COC(=O)/C=C/C(=O)OC)C1CC1", "note": "[(N-cyclopropyl-N-ethylcarbamoyl)methyl methyl 2(E)but-2-ene-1,4-dioate]", "values": [{"measurement": "GI Irritation Score (180 mg-eq of MHF/kg)", "setting": "rat stomach", "result": 1.0}, {"measurement": "melting point", "result": 92.1, "unit": "°C"}]}, {"smiles": "COC(=O)/C=C/C(=O)OCCCN1CCOCC1", "note": "[Methyl 3-morpholin-4-ylpropyl (2E)but-2-ene-1,4-dioate]", "values": [{"measurement": "GI Irritation Score (180 mg-eq of MHF/kg)", "setting": "rat stomach", "result": 0.0}]}, {"smiles": "COC(=O)/C=C/C(=O)OCC(=O)N1CCOCC1", "note": "[Methyl 2-morpholin-4-yl-2-oxoethyl (2E)but-2-ene-1,4-dioate]", "values": [{"measurement": "GI Irritation Score (180 mg-eq of MHF/kg)", "setting": "rat stomach", "result": 2.9}, {"measurement": "melting point", "result": "124 to 126", "unit": "°C"}]}, {"smiles": "COC(=O)/C=C/C(=O)OCC(=O)N(C)C1CC1", "note": "[(N-cyclopropyl-N-methylcarbamoyl)methyl methyl 2(E)but-2-ene-1,4-dioate]", "values": [{"measurement": "GI Irritation Score (180 mg-eq of MHF/kg)", "setting": "rat stomach", "result": 2.6}, {"measurement": "melting point", "result": 93.6, "unit": "°C"}]}, {"smiles": "COC(=O)/C=C/C(=O)OCC(=O)N(C)C", "note": "[(N,N-Dimethylcarbamoyl)methyl methyl (2E)but-2-ene-1,4-dioate]", "values": [{"measurement": "GI Irritation Score (180 mg-eq of MHF/kg)", "setting": "rat stomach", "result": 2.4}]}, {"smiles": "COC(=O)/C=C/C(=O)OCCN1CCOCC1", "note": "[Methyl 2-morpholin-4-ylethyl (2E)but-2-ene-1,4-dioate]", "values": [{"measurement": "GI Irritation Score (180 mg-eq of MHF/kg)", "setting": "rat stomach", "result": 0.0}]}, {"smiles": "COC(=O)/C=C/C(=O)OCC(=O)N1CCCC1", "note": "[Methyl 2-oxo-2-pyrrolidinylethyl 2(E)but-2-ene-1,4-dioate]", "values": [{"measurement": "GI Irritation Score (180 mg-eq of MHF/kg)", "setting": "rat stomach", "result": 3.0}, {"measurement": "melting point", "result": 102.1, "unit": "°C"}]}, {"smiles": "CCN(CC)C(=O)COC(=O)/C=C/C(=O)OC", "note": "[(N,N-Diethylcarbamoyl)methyl methyl (2E)but-2-ene-1,4-dioate]", "values": [{"measurement": "relative GST enzyme activity (GSTArel)", "setting": "[2]", "result": "less than 80%"}, {"measurement": "GI Irritation Score (180 mg-eq of MHF/kg)", "setting": "rat stomach", "result": 1.4}, {"measurement": "reduction in EAE clinical score (Day 29 and overall AUC) compared to vehicle", "setting": "C57BL/6 mice", "result": "significant reduction"}, {"measurement": "effect versus control in IMQ model (erythema score primary outcome)", "setting": "Balb/c mice; oral 90 mg-eq/kg twice daily", "result": "significant"}, {"measurement": "intact prodrug in the systemic blood", "setting": "[3]", "result": "not detected"}, {"measurement": "conversion to MHF after absorption", "setting": "[4]", "result": "converted rapidly to MHF"}, {"measurement": "prodrug in the systemic circulation", "setting": "[4]", "result": "not detected"}, {"measurement": "MHF exposure compared with DMF at 300 mg/kg/day", "setting": "[4]; 500 mg/kg/day", "result": "identical"}, {"measurement": "conversion to MHF after absorption", "setting": "[5]", "result": "converted rapidly to MHF"}, {"measurement": "prodrug in the systemic circulation", "setting": "[5]", "result": "not detected"}, {"measurement": "glandular stomach findings", "setting": "CD rats [6]", "result": "no adverse effects on glandular stomach"}]}, {"smiles": "COC(=O)/C=C/C(=O)OCCCCN1CCOCC1", "note": "[Methyl 4-morpholin-4-ylbutyl (2E)but-2-ene-1,4-dioate]", "values": [{"measurement": "GI Irritation Score (180 mg-eq of MHF/kg)", "setting": "rat stomach", "result": 0.6}]}]}
